Experimental data taken from the supplement of paper PMC10307832.

Assays:
Experiment in all cases: relative viability (nuclei count vs DMSO), 5 days (fraction); higher = more cells survive
LCLC-103H = tested on: LCLC-103H
Outline: (§1)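 Lung cancer cell lines, seeded in 1536-well plates, were treated the following day by pin tool with a single drug or with five library-drug doses (not always all listed) in √10 steps on top of a fixed anchor-drug dose. Cells were fixed and nuclei stained in one step after 5 days, and nuclei were counted. Relative viability is the nuclei count for treated wells divided by that for vehicle wells, reported as medians of duplicate plates.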

NCI-H1648 = tested on: NCI-H1648
Outline: as §1

HCC-15 = tested on: HCC-15
Outline: as §1

EKVX = tested on: EKVX
Outline: as §1

NCI-H1755 = tested on: NCI-H1755
Outline: as §1

HCC-44 = tested on: HCC-44
Outline: as §1

NCI-H1395 = tested on: NCI-H1395
Outline: as §1

NCI-H1623 = tested on: NCI-H1623
Outline: as §1

UMC-11 = tested on: UMC-11
Outline: as §1

CCN(CC)CCCCNc1ncc2cc(-c3cc(OC)cc(OC)c3)c(NC(=O)NC(C)(C)C)nc2n1 + COc1cccc2cc(-c3nc([C@H]4CC[C@H](C(=O)O)CC4)n4ncnc(N)c34)[nH]c12 [OSI-027] (partner 0.5 µM)
relative viability (LCLC-103H; first compound 0.01 µM): 0.455
relative viability (LCLC-103H; first compound 0.03162 µM): 0.482
relative viability (LCLC-103H; first compound 0.1 µM): 0.456
relative viability (LCLC-103H; first compound 0.3162 µM): 0.386
relative viability (LCLC-103H; first compound 1 µM): 0.339
relative viability (NCI-H1648; first compound 0.01 µM): 0.311
relative viability (NCI-H1648; first compound 0.03162 µM): 0.228
relative viability (NCI-H1648; first compound 0.1 µM): 0.26
relative viability (NCI-H1648; first compound 0.3162 µM): 0.24
relative viability (NCI-H1648; first compound 1 µM): 0.243
relative viability (HCC-15; first compound 0.01 µM): 0.662
relative viability (HCC-15; first compound 0.03162 µM): 0.673
relative viability (HCC-15; first compound 0.1 µM): 0.717
relative viability (HCC-15; first compound 0.3162 µM): 0.936
relative viability (HCC-15; first compound 1 µM): 0.577
relative viability (EKVX; first compound 0.01 µM): 0.734
relative viability (EKVX; first compound 0.03162 µM): 0.721
relative viability (EKVX; first compound 0.1 µM): 0.711
relative viability (EKVX; first compound 0.3162 µM): 0.765
relative viability (EKVX; first compound 1 µM): 0.671
relative viability (NCI-H1755; first compound 0.01 µM): 0.625
relative viability (NCI-H1755; first compound 0.03162 µM): 0.77
relative viability (NCI-H1755; first compound 0.1 µM): 0.811
relative viability (NCI-H1755; first compound 0.3162 µM): 0.799
relative viability (NCI-H1755; first compound 1 µM): 0.707
relative viability (HCC-44; first compound 0.01 µM): 0.436
relative viability (HCC-44; first compound 0.03162 µM): 0.587
relative viability (HCC-44; first compound 0.1 µM): 0.573
relative viability (HCC-44; first compound 0.3162 µM): 0.519
relative viability (HCC-44; first compound 1 µM): 0.479
relative viability (NCI-H1395; first compound 0.01 µM): 0.578
relative viability (NCI-H1395; first compound 0.03162 µM): 0.697
relative viability (NCI-H1395; first compound 0.1 µM): 0.745
relative viability (NCI-H1395; first compound 0.3162 µM): 0.554
relative viability (NCI-H1395; first compound 1 µM): 0.458
relative viability (NCI-H1623; first compound 0.01 µM): 0.419
relative viability (NCI-H1623; first compound 0.03162 µM): 0.385
relative viability (NCI-H1623; first compound 0.1 µM): 0.381
relative viability (NCI-H1623; first compound 0.3162 µM): 0.469
relative viability (NCI-H1623; first compound 1 µM): 0.383
relative viability (UMC-11; first compound 0.01 µM): 0.508
relative viability (UMC-11; first compound 0.03162 µM): 0.473
relative viability (UMC-11; first compound 0.1 µM): 0.481
relative viability (UMC-11; first compound 0.3162 µM): 0.485
relative viability (UMC-11; first compound 1 µM): 0.443

O=c1cc(-c2cccc3c2Sc2ccccc2S3)oc(N2CCOCC2)c1 + COc1cccc2cc(-c3nc([C@H]4CC[C@H](C(=O)O)CC4)n4ncnc(N)c34)[nH]c12 [OSI-027] (partner 0.5 µM)
relative viability (LCLC-103H; first compound 0.08 µM): 0.434
relative viability (LCLC-103H; first compound 0.253 µM): 0.489
relative viability (LCLC-103H; first compound 0.8 µM): 0.504
relative viability (LCLC-103H; first compound 2.53 µM): 0.481
relative viability (LCLC-103H; first compound 8 µM): 0.454
relative viability (NCI-H1648; first compound 0.08 µM): 0.264
relative viability (NCI-H1648; first compound 0.253 µM): 0.257
relative viability (NCI-H1648; first compound 0.8 µM): 0.277
relative viability (NCI-H1648; first compound 2.53 µM): 0.22
relative viability (NCI-H1648; first compound 8 µM): 0.252
relative viability (HCC-15; first compound 0.08 µM): 0.633
relative viability (HCC-15; first compound 0.253 µM): 0.765
relative viability (HCC-15; first compound 0.8 µM): 0.733
relative viability (HCC-15; first compound 2.53 µM): 0.634
relative viability (HCC-15; first compound 8 µM): 0.611
relative viability (EKVX; first compound 0.08 µM): 0.722
relative viability (EKVX; first compound 0.253 µM): 0.812
relative viability (EKVX; first compound 0.8 µM): 0.678
relative viability (EKVX; first compound 2.53 µM): 0.715
relative viability (EKVX; first compound 8 µM): 0.67
relative viability (NCI-H1755; first compound 0.08 µM): 0.71
relative viability (NCI-H1755; first compound 0.253 µM): 0.794
relative viability (NCI-H1755; first compound 0.8 µM): 0.682
relative viability (NCI-H1755; first compound 2.53 µM): 0.553
relative viability (NCI-H1755; first compound 8 µM): 0.772
relative viability (HCC-44; first compound 0.08 µM): 0.419
relative viability (HCC-44; first compound 0.253 µM): 0.561
relative viability (HCC-44; first compound 2.53 µM): 0.343
relative viability (HCC-44; first compound 8 µM): 0.499
relative viability (NCI-H1395; first compound 0.08 µM): 0.594
relative viability (NCI-H1395; first compound 0.253 µM): 0.581
relative viability (NCI-H1395; first compound 0.8 µM): 0.601
relative viability (NCI-H1395; first compound 2.53 µM): 0.577
relative viability (NCI-H1395; first compound 8 µM): 0.683
relative viability (NCI-H1623; first compound 0.08 µM): 0.593
relative viability (NCI-H1623; first compound 0.253 µM): 0.447
relative viability (NCI-H1623; first compound 0.8 µM): 0.346
relative viability (NCI-H1623; first compound 2.53 µM): 0.431
relative viability (NCI-H1623; first compound 8 µM): 0.374
relative viability (UMC-11; first compound 0.08 µM): 0.546
relative viability (UMC-11; first compound 0.253 µM): 0.562
relative viability (UMC-11; first compound 0.8 µM): 0.457
relative viability (UMC-11; first compound 2.53 µM): 0.429
relative viability (UMC-11; first compound 8 µM): 0.514

O=c1cc(N2CCOCC2)oc2c(-c3cccc4c3sc3ccccc34)cccc12 + Cc1cc(Nc2cc(N3CCN(C)CC3)nc(Sc3ccc(NC(=O)C4CC4)cc3)n2)n[nH]1 [Tozasertib] (partner 0.1 µM)
relative viability (LCLC-103H; first compound 0.01 µM): 0.425
relative viability (LCLC-103H; first compound 0.03162 µM): 0.538
relative viability (LCLC-103H; first compound 0.1 µM): 0.485
relative viability (LCLC-103H; first compound 0.3162 µM): 0.504
relative viability (LCLC-103H; first compound 1 µM): 0.457
relative viability (NCI-H1648; first compound 0.01 µM): 0.503
relative viability (NCI-H1648; first compound 0.03162 µM): 0.501
relative viability (NCI-H1648; first compound 0.1 µM): 0.547
relative viability (NCI-H1648; first compound 0.3162 µM): 0.621
relative viability (NCI-H1648; first compound 1 µM): 0.504
relative viability (HCC-15; first compound 0.01 µM): 0.413
relative viability (HCC-15; first compound 0.03162 µM): 0.379
relative viability (HCC-15; first compound 0.1 µM): 0.433
relative viability (HCC-15; first compound 0.3162 µM): 0.33
relative viability (HCC-15; first compound 1 µM): 0.448
relative viability (EKVX; first compound 0.01 µM): 0.448
relative viability (EKVX; first compound 0.03162 µM): 0.332
relative viability (EKVX; first compound 0.1 µM): 0.441
relative viability (EKVX; first compound 0.3162 µM): 0.343
relative viability (EKVX; first compound 1 µM): 0.36
relative viability (NCI-H1755; first compound 0.01 µM): 0.592
relative viability (NCI-H1755; first compound 0.03162 µM): 0.669
relative viability (NCI-H1755; first compound 0.1 µM): 0.693
relative viability (NCI-H1755; first compound 0.3162 µM): 0.539
relative viability (NCI-H1755; first compound 1 µM): 0.542
relative viability (HCC-44; first compound 0.01 µM): 0.846
relative viability (HCC-44; first compound 0.03162 µM): 1.05
relative viability (HCC-44; first compound 0.1 µM): 1.12
relative viability (HCC-44; first compound 0.3162 µM): 0.876
relative viability (HCC-44; first compound 1 µM): 0.91
relative viability (NCI-H1395; first compound 0.01 µM): 0.78
relative viability (NCI-H1395; first compound 0.03162 µM): 0.776
relative viability (NCI-H1395; first compound 0.1 µM): 0.659
relative viability (NCI-H1395; first compound 0.3162 µM): 0.832
relative viability (NCI-H1395; first compound 1 µM): 0.682
relative viability (NCI-H1623; first compound 0.01 µM): 0.472
relative viability (NCI-H1623; first compound 0.03162 µM): 0.4
relative viability (NCI-H1623; first compound 0.1 µM): 0.394
relative viability (NCI-H1623; first compound 0.3162 µM): 0.411
relative viability (NCI-H1623; first compound 1 µM): 0.343
relative viability (UMC-11; first compound 0.01 µM): 0.194
relative viability (UMC-11; first compound 0.03162 µM): 0.208
relative viability (UMC-11; first compound 0.1 µM): 0.202
relative viability (UMC-11; first compound 0.3162 µM): 0.209
relative viability (UMC-11; first compound 1 µM): 0.202
